The structures appear in SMILES notation.

This note sets out measurements from publication PMC3070202 (Biochemistry, 2010).

For experiment [1], the target named is T1, human pancreas-specific protein disulfide isomerase (PDIp) (Homo sapiens, UniProt Q13087, Q265L).
T1 sequence (Q13087 153-366 Q265L limits assumed): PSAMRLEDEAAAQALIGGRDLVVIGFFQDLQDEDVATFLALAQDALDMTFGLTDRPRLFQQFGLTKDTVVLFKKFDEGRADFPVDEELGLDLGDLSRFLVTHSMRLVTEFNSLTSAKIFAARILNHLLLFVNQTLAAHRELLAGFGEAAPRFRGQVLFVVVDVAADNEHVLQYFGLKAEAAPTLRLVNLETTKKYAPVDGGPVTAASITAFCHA
As to the kind of experiment: [3H]E2 saturation radioligand binding.

The target of experiment [2] is T2, human pancreas-specific protein disulfide isomerase (PDIp) (Homo sapiens, UniProt Q13087).
T2 sequence (Q13087 22-525): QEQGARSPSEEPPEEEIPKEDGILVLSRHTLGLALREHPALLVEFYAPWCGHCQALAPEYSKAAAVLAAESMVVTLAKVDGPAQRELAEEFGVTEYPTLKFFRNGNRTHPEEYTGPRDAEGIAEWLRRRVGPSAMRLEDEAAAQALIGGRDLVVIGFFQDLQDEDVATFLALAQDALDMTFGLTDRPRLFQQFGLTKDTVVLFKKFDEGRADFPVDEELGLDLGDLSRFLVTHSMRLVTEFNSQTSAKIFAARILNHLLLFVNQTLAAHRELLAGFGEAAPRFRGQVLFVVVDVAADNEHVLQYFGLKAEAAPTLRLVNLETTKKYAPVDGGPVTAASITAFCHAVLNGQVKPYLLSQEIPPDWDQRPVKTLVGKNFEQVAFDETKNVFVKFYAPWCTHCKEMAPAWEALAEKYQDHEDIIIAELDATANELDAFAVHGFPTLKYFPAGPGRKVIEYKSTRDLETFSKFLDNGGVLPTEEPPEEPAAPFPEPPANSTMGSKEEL
In words: [3H]E2 saturation radioligand binding with Scatchard plot.

Experiment [3] concerns the target T2, human pancreas-specific protein disulfide isomerase (PDIp). As to the kind of experiment: competition with [3H]E2 radioligand binding at […].

As to `C[C@]12CC[C@@H]3c4ccc(O)cc4CC[C@H]3[C@@H]1CC[C@@H]2O` [E2, Estradiol], the Kd in experiment [1] is 185 ± 8 nM; in experiment [2] it was approximately 170 nM.

On to `C[C@]12CC[C@@H]3c4ccc(O)cc4CC[C@H]3[C@@H]1C[C@@H](O)[C@@H]2O` [E3], for which the “competition with [3H]E2 radioligand binding at 10 μM” value in experiment [3] is “could efficiently compete with [^3H]E2 for binding to the b-b′ fragment or the full-length PDIp”.

Usually Kd stands for the constant that tells how readily two partners part at equilibrium.
